Experimental data from US20240189307A1, “METHODS OF STABILIZING THE NEURONAL PROTEOME AGAINST COLLAPSE AND PROTECTING VASCULAR CELLS” (ALBERT EINSTEIN COLLEGE OF MEDICINE, priority 2021, published 2024).

Legend:
[1] = Pharmacokinetic analysis in mice brain after p.o. and i.v. administration; format: in vivo; details: p.o. 10 mg/Kg and i.v. 1 mg/kg
[2] = test system: KFERQ-Dendra mice; experiment: CMA activation in brain of KFERQ-Dendra mice; details: administered in vivo
Text: To test this possibility, we measured CMA in a mouse model of tau-mediated proteotoxicity expressing mutant human tau (hTau^P301L) under the Thy 1.2 promotor (line pR5). We crossed hTau^P301L mice with a transgenic mouse model that expresses systemically a KFERQ-tagged fluorescent protein Dendra2 (KFERQ-Dendra), recently developed by our group. This reporter protein, when targeted for degradation via CMA, highlights lysosomes as fluorescent puncta, that can be counted as read out of CMA activity.

[3] = test system: Tg mice (APPSwe; PS2N141I; TauP301L); experiment: Triple transgenic (Tg, TauPS2APP) mouse model of Alzheimer's disease-related proteotoxicity, oral daily CA; format: in vivo
Text: FIG. 12. Chemical activation of CMA improves behavior and neuropathology in a mouse model of Alzheimer's disease-related proteotoxicity. (A) Schematic of regimen of CMA activator (CA) administration to TauPS2APP (Tg) mice. (B-D) Performance of Tg mice administered vehicle (Veh) or CMA activator (CA) in the novel object recognition test (B, left plot: % of time dedicated to the novel object; right plot: discrimination index), the elevated plus maze (C) and the forced swim test (D). (E) Clasping score in Tg mice +/− CA: time course of clasping score increase (left) and mean linear regression coefficient (right). (F) Performance of Tg mice +/− CA in horizontal grid test. (G-O) Immunostaining of immature amyloid plaques (MOAB2), mature amyloid depositions (6E10), β-sheet marker (Thioflavin S) and Threonine231-phosphorylated tau (pThr231 tau) in the dorsal hippocampus of Tg mice +/− CA. Montages of individual images from the scanning of whole brain slices are shown. Inset: Higher magnification of pThr231 tau staining. Scale bar: 200 μm. Quantification of images of montages of individual images from the scanning of whole brain slices of percentage of area positive and plaque size for MOAB2 (G, J), 6E10 (H, K) or Thioflavin S (I, L). Relationship between number of plaques and average plaque size for different markers of plaque maturity (ThS>6E10>MOAB2) […]. Quantification of percentage of area positive for pThr231 tau (N) and of the overlap between pThr231 tau staining and 6E10 staining (O). All quantifications (except clasping—E) were done at 12 months, in 4-6 mice per group. Data are mean±s.e.m. Comparisons were made using unpaired t-test (B-D, F, G-O), Two-way ANOVA test followed by Sidak's post-hoc analysis (E). *p<0.05, **p<0.005, ***p<0.0005.
FIG. 13. Effect of chemical activation of CMA in a mouse model of Alzheimer's disease-related proteotoxicity. (A-D) Quantification of size of plaques positive for MOAB2 (t7=3.181, p=0.0155) (A), 6E10 (B) or Thioflavin S (ThS) (C) and of T231-phosphorylated tau pathology (t8=2.382, p=0.0444) (D) in brain cortex from Tg mice administered Veh or CA for 4 months. (E) Summary heatmap highlighting the extent of pathology reduction upon CMA activation in cortex and dorsal hippocampus. * highlights significant difference between Veh and CA administered Tg mice. (F) Immunoblot for S202/T205-phosphorylated (AT8) tau in the brain of Tg mice treated with Veh or CA. Representative immunoblot (left) and densitometric quantification (t8=2.425, p=0.0415) (right). Values were normalized to ponceau and are expressed as folds of Veh treated mice. (G) Number of GFAP-positive astrocytes per area unit (t8=4.058, p=0.0036). (H-I) Representative images of immunostaining of inflammation (microglial marker: Iba1—Green), amyloid pathology (MOAB2—Magenta) and nuclear staining with DAPI (blue) in the dorsal hippocampus of Tg mice administered Veh or CA. Montages of individual images of the dorsal hippocampus from the scanning of whole brain slices are shown. Quantification of number of Iba1-positive microglial cells per area unit (t8=2.041, p=0.0755) (left) and mean cell size (t8=2.079, p=0.0713) (right) (H) and colocalization coefficient between microglia (Iba1) and amyloid plaques (MOAB2) (I) (Mann Whitney U=6, p=0.2571). Mean±s.e.m. and individual values are shown. Comparisons were made using unpaired t-test analysis. *: p<0.05, **: p<0.005.
Male wild-type mice (C57BL/6J) or transgenic for CaMKIIα-Cre (B6.Cg-Tg(Camk2α-cre)T29-1Stl/J, Jackson Laboratory), LAMP-2A^flox/flox (Schneider et al., 2014), Tau^P301L (line pR5), Tg (APP^Swe; PS2^N141I; Tau^P301L), PS19 (Tau^P301S) (Yoshiyama et al., 2007) and Atg7^f/f were used in the study. Conditional LAMP-2A deletion was generated by breeding LAMP-2A^flox/flox with the transgenic Cre mice of interest. […]

[4] = dorsal hippocampus, 30 mg/kg oral daily, 4 months
[5] = hippocampus and cortex, 30 mg/kg oral daily, 4 months

In the case of `CC(=O)Nc1ccc(-c2cnc3cc(Cl)ccc3n2)cc1` [CA77.1], the “brain penetrance and pharmacokinetics” value [1] is reported as “brain penetrance with favorable pharmacokinetics”, the “activation of CMA in brain in vivo” value [2] is reported as “activation of CMA in brain of KFERQ-Dendra mice” and the “visual memory (novel object recognition test)” value ([3]; 30 mg/kg oral daily for 4 months from 8 months of age) is reported as “better visual memory”. For the same molecule, the “anxiety- and depression-like behaviors (elevated plus maze, forced swim test)” value ([3]; 30 mg/kg oral daily, 4 months) was “decreased anxiety- and depression-like behaviors”, the clasping progression ([3]; 30 mg/kg oral daily, 4 months) was “slower clasping progression” and the “number of amyloid deposits” value ([3]; 30 mg/kg oral daily, 4 months) was “lower number of deposits depending on the deposit maturity”. The “performance in horizontal grid test” value ([3]; 30 mg/kg oral daily, 4 months) was “increased performance in horizontal grid test”, the “S202/T205-phosphorylated (AT8) tau by immunoblot” value ([3]; brain, 30 mg/kg oral daily, 4 months) was “significant reduction of the mature phosphosite AT8” and the “association of glial cells with amyloid plaque-like deposit” value [3, 4] was “less association of glial cells with amyloid plaque-like deposit”. The “number of microglia and astrocytes” value [3, 4] was “lower number of microglia and astrocytes in the dorsal hippocampus”, the “T231 phosphorylated Tau levels” value [3, 5] was “reduced levels of the early T231 phosphorylated Tau” and the “area and size of amyloid plaques (MOAB2, 6E10, thioflavin S)” value [3, 5] was “reduced area and size of immature (MOAB2-positive) and mature (6E10 and thioflavin S-positive) amyloid plaques”.
